In patent EP1247803A2, “Indolinone compounds suitable for modulation of protein kinases” (Sugen, Inc., priority 1996, dated 1998):

Assays:
EGFR = biological target: T1, EGFR (Homo sapiens, UniProt P00533); experiment: EGFR ELISA assay (in vitro kinase activity, EGFR captured from A431 cell lysate); type: biochemical; design: concentration or dose not given beside the values
T1 construct: Add 7 ug A431 cell lysate per well (EGFR source); endogenous in cells; host or cells: A431
Method in brief: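 EGFR from A431 lysate was captured on plates coated with anti-EGFR antibody. Compounds were added 30 min before a 5 min phosphorylation with 3 µM ATP/5 mM MnCl2, which was stopped with 20 mM EDTA. Phosphotyrosine was detected with rabbit anti-phosphotyrosine, then a peroxidase-conjugated secondary and ABTS/H2O2, read at 410 nm.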

MET = MET biochemical kinase assay; design: species or system human; concentration or dose not given beside the values
Method in brief: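 Colorimetric signal from an HRP-linked anti-phosphotyrosine antibody with TMB measures phosphate incorporated into immobilised MET. The receptor is pulled from lysates by a polyclonal antibody against its cytoplasmic domain, then reacts in ATP- and metal-containing buffer with test compound.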

PDGF-R = PDGF-R (Homo sapiens, UniProt P09619); experiment: PDGF-R ELISA; type: cell-based
Chain of PDGF-R (P09619 33-1106, species assumed): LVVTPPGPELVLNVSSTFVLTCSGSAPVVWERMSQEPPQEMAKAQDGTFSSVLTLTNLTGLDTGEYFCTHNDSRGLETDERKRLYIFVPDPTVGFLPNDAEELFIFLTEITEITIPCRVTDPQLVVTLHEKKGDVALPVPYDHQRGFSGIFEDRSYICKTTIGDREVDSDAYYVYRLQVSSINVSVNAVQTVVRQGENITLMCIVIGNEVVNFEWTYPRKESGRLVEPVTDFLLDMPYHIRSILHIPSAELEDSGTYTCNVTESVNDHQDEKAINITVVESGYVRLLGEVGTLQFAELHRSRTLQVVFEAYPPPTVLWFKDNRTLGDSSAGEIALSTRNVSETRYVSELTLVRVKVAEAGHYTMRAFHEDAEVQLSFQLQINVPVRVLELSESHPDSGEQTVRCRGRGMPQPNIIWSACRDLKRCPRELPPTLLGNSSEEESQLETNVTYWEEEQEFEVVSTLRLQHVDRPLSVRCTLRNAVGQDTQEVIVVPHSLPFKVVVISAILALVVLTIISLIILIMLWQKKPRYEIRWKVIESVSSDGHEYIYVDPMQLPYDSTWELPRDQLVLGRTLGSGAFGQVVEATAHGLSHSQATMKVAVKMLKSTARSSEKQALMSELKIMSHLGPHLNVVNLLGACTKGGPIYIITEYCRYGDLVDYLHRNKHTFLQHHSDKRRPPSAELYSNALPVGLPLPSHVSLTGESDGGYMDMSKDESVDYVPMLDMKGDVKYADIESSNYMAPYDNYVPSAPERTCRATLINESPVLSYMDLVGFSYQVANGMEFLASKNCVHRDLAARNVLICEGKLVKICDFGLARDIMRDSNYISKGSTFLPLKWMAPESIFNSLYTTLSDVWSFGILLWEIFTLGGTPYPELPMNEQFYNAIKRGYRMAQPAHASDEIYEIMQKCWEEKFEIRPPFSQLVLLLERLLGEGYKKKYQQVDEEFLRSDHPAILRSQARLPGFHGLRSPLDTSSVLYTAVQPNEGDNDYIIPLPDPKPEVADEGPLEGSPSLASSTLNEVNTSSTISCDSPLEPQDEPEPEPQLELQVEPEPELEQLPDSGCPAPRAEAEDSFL
Description: A PDGF-R ELISA is described in International Patent Publication No. WO 96/40116, published December 19, 1996 by Tang et al.

T1 sequence (P00533 25-1210): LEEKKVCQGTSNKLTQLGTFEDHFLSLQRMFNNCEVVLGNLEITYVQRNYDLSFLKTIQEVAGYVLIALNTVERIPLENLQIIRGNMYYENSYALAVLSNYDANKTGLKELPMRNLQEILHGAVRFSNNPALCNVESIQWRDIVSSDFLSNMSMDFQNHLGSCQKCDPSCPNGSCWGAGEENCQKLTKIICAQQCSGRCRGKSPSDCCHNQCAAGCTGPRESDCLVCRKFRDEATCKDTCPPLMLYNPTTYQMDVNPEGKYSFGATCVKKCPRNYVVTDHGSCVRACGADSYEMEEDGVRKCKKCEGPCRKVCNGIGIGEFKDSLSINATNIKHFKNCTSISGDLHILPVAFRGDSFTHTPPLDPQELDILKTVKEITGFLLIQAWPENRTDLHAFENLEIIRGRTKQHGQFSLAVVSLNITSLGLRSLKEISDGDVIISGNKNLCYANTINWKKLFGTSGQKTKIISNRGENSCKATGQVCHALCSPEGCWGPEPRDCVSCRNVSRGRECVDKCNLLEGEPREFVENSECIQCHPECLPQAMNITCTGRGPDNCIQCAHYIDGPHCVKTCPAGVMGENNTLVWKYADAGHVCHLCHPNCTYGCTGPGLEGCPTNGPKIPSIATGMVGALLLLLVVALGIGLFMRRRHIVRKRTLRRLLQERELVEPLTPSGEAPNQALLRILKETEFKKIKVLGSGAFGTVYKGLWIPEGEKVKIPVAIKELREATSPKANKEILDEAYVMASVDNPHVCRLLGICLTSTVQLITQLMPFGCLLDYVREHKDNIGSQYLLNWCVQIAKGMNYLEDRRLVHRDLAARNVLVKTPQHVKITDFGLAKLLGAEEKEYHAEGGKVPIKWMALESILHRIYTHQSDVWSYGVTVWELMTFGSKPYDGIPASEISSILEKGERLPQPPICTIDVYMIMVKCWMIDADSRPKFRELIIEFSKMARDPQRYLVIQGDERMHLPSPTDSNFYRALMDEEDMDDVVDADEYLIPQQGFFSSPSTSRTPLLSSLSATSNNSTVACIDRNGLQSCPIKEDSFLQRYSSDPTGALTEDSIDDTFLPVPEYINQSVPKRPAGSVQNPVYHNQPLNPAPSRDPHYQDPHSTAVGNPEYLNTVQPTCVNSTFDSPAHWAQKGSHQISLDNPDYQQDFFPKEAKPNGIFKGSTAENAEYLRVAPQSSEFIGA

Row | Structure (SMILES) | Biochem EGFR %Inhibition (EGFR) | Met Kinase % Inhibition (MET) | PDGF Kinase %Inhibition (PDGF-R)
1 | O=C1Nc2c(Br)cc(Br)cc2C1=Cc1ccc(F)cc1 [10717/A05] | 16.6% | 35.6% | –
2 | Cc1ccc(C=C2C(=O)Nc3ccc(S(=O)(=O)N4CCOCC4)cc32)s1 [10717/F07] | -14.3% | 37.6% | –
3 | O=C1Nc2ccc(S(=O)(=O)N3CCOCC3)cc2C1=Cc1ccc(Br)cc1 [10717/F08] | -23.4% | 64.0% | –
4 | O=C1Nc2ccc(S(=O)(=O)N3CCOCC3)cc2C1=Cc1ccc[nH]1 [10717/F09] | 1.8% | 41.4% | –
5 | COc1cccc(O)c1C=C1C(=O)Nc2ccc(S(=O)(=O)N3CCOCC3)cc21 [10717/F10] | -26.4% | 54.6% | –
6 | Cc1[nH]c(C=C2C(=O)Nc3ccc(S(=O)(=O)N4CCOCC4)cc32)c(Br)c1Br [10717/F11] | 91.2% | 81.5% | –
7 | CCOc1ccccc1C=C1C(=O)Nc2ccc(CCCl)cc21 [10717/G02] | 32.3% | 30.7% | –
8 | O=C1Nc2ccc(CCCl)cc2C1=Cc1cccs1 [10717/G03] | 18.8% | 4.5% | –
9 | Cc1c(Br)ccc2c1C(=Cc1sccc1Br)C(=O)N2 [10725/C02] | -43.4% | 6.3% | -5.1%
10 | COc1ccc(Br)c(C=C2C(=O)Nc3ccc(Br)c(C)c32)c1O [10725/C03] | -12.7% | 72.9% | 19.3%
11 | Cc1ccc(C=C2C(=O)Nc3ccc(Br)c(C)c32)o1 [10725/C04] | 31.8% | 75.9% | 25.1%
12 | Cc1cc(C=C2C(=O)Nc3ccc(Br)c(C)c32)[nH]n1 [10725/C05] | -21.9% | 31.7% | 28.9%
13 | COc1cc(C)cc(O)c1C=C1C(=O)Nc2ccc(Br)c(C)c21 [10725/C06] | -11.5% | 54.7% | 46.6%
14 | Cc1c(Br)ccc2c1C(=Cc1ccc(N3CCN(C=O)CC3)cc1)C(=O)N2 [10725/C07] | -16.5% | 38.8% | 107.0%
15 | Cc1c(Br)ccc2c1C(=Cc1ccc(N3CCOCC3)cc1)C(=O)N2 [10725/C08] | -11.9% | 28.0% | 101.7%
16 | COC(=O)Cc1c(Cl)[nH]c(C=C2C(=O)Nc3ccc(Br)c(C)c32)c1C(=O)OC [10725/C09] | 23.6% | 24.1% | 34.7%
17 | Cc1c(Br)ccc2c1C(=Cc1c(Br)cnn1-c1ccc(Cl)cc1)C(=O)N2 [10725/C10] | 5.3% | -0.6% | 38.5%
18 | Cc1c(Br)ccc2c1C(=Cc1c[nH]cn1)C(=O)N2 [10725/C11] | -22.1% | 48.4% | 80.7%
19 | CNS(=O)(=O)c1ccc2c(c1)C(=Cc1sccc1Br)C(=O)N2 [10725/D02] | -23.9% | 14.0% | -8.4%
20 | CNS(=O)(=O)c1ccc2c(c1)C(=Cc1c(Br)ccc(OC)c1O)C(=O)N2 [10725/D03] | -2.5% | 72.9% | 5.4%
21 | CNS(=O)(=O)c1ccc2c(c1)C(=Cc1ccc(C)o1)C(=O)N2 [10725/D04] | 4.3% | 55.1% | 12.2%
22 | CNS(=O)(=O)c1ccc2c(c1)C(=Cc1cc(C)n[nH]1)C(=O)N2 [10725/D05] | -19.7% | 24.5% | 10.7%
23 | CNS(=O)(=O)c1ccc2c(c1)C(=Cc1c(O)cc(C)cc1OC)C(=O)N2 [10725/D06] | -26.4% | 24.7% | 21.7%
24 | CNS(=O)(=O)c1ccc2c(c1)C(=Cc1ccc(N3CCN(C=O)CC3)cc1)C(=O)N2 [10725/D07] | -25.8% | 37.0% | 18.4%

Row | Structure (SMILES) | Biochem EGFR %Inhibition (EGFR) | Met Kinase % Inhibition (MET) | PDGF Kinase %Inhibition (PDGF-R)
25 | CNS(=O)(=O)c1ccc2c(c1)C(=Cc1ccc(N3CCOCC3)cc1)C(=O)N2 [10725/D08] | 20.0% | 39.2% | 38.5%
26 | CNS(=O)(=O)c1ccc2c(c1)C(=Cc1[nH]c(Cl)c(CC(=O)OC)c1C(=O)OC)C(=O)N2 [10725/D09] | 4.3% | 28.0% | 35.6%
27 | CNS(=O)(=O)c1ccc2c(c1)C(=Cc1c(Br)cnn1-c1ccc(Cl)cc1)C(=O)N2 [10725/D10] | 11.7% | 27.8% | 43.8%
28 | CNS(=O)(=O)c1ccc2c(c1)C(=Cc1c[nH]cn1)C(=O)N2 [10725/D11] | -12.5% | 100.5% | 23.2%
29 | O=C1Nc2ccc(S(=O)(=O)Nc3ccc(C(F)(F)F)cc3)cc2C1=Cc1sccc1Br [10725/E02] | 4.3% | 40.2% | -8.9%
30 | COc1ccc(Br)c(C=C2C(=O)Nc3ccc(S(=O)(=O)Nc4ccc(C(F)(F)F)cc4)cc32)c1O [10725/E03] | -10.3% | 60.9% | 10.7%
31 | Cc1ccc(C=C2C(=O)Nc3ccc(S(=O)(=O)Nc4ccc(C(F)(F)F)cc4)cc32)o1 [10725/E04] | 31.2% | 59.0% | 3.1%
32 | Cc1cc(C=C2C(=O)Nc3ccc(S(=O)(=O)Nc4ccc(C(F)(F)F)cc4)cc32)[nH]n1 [10725/E05] | -5.5% | 28.2% | 27.5%
33 | COc1cc(C)cc(O)c1C=C1C(=O)Nc2ccc(S(=O)(=O)Nc3ccc(C(F)(F)F)cc3)cc21 [10725/E06] | -17.7% | 36.7% | 39.0%
34 | O=CN1CCN(c2ccc(C=C3C(=O)Nc4ccc(S(=O)(=O)Nc5ccc(C(F)(F)F)cc5)cc43)cc2)CC1 [10725/E07] | 12.5% | 45.3% | 28.9%
35 | O=C1Nc2ccc(S(=O)(=O)Nc3ccc(C(F)(F)F)cc3)cc2C1=Cc1ccc(N2CCOCC2)cc1 [10725/E08] | 14.2% | 39.7% | 48.6%
36 | COC(=O)Cc1c(Cl)[nH]c(C=C2C(=O)Nc3ccc(S(=O)(=O)Nc4ccc(C(F)(F)F)cc4)cc32)c1C(=O)OC [10725/E09] | 31.4% | 22.4% | 37.5%
37 | O=C1Nc2ccc(S(=O)(=O)Nc3ccc(C(F)(F)F)cc3)cc2C1=Cc1c(Br)cnn1-c1ccc(Cl)cc1 [10725/E10] | 6.1% | -4.7% | 28.4%
38 | O=C1Nc2ccc(S(=O)(=O)Nc3ccc(C(F)(F)F)cc3)cc2C1=Cc1c[nH]cn1 [10725/E11] | -36.0% | 9.6% | 20.8%
39 | O=C1Nc2ccc(S(=O)(=O)N3CCOCC3)cc2C1=Cc1sccc1Br [10725/F02] | -3.7% | 27.8% | -15.1%
40 | COc1ccc(Br)c(C=C2C(=O)Nc3ccc(S(=O)(=O)N4CCOCC4)cc32)c1O [10725/F03] | -36.2% | 63.2% | -27.1%
41 | Cc1ccc(C=C2C(=O)Nc3ccc(S(=O)(=O)N4CCOCC4)cc32)o1 [10725/F04] | -49.6% | 38.1% | -4.6%
42 | Cc1cc(C=C2C(=O)Nc3ccc(S(=O)(=O)N4CCOCC4)cc32)[nH]n1 [10725/F05] | -18.9% | 15.5% | -5.6%
43 | COc1cc(C)cc(O)c1C=C1C(=O)Nc2ccc(S(=O)(=O)N3CCOCC3)cc21 [10725/F06] | -37.8% | 41.8% | 14.1%
44 | O=CN1CCN(c2ccc(C=C3C(=O)Nc4ccc(S(=O)(=O)N5CCOCC5)cc43)cc2)CC1 [10725/F07] | 16.4% | 67.8% | 15.0%
45 | O=C1Nc2ccc(S(=O)(=O)N3CCOCC3)cc2C1=Cc1ccc(N2CCOCC2)cc1 [10725/F08] | 15.4% | 72.2% | 28.9%
46 | COC(=O)Cc1c(Cl)[nH]c(C=C2C(=O)Nc3ccc(S(=O)(=O)N4CCOCC4)cc32)c1C(=O)OC [10725/F09] | 32.2% | 48.5% | 28.4%
47 | O=C1Nc2ccc(S(=O)(=O)N3CCOCC3)cc2C1=Cc1c(Br)cnn1-c1ccc(Cl)cc1 [10725/F10] | 3.7% | 14.2% | 17.9%
